Results from publication PMC11681865, “Oligomerization of protein arginine methyltransferase 1 and its functional impact on substrate arginine methylation” (The Journal of Biological Chemistry, 2024).
Entries after “also recorded” stand apart in the source; their conditions may differ.

Experiments:
PRMT1 [1] = molecular target: T1, PRMT1 (Homo sapiens, UniProt Q99873); assay: Dynamic light scattering of PRMT1 oligomers; assay type: physicochemical; conditions: pH 8, 25 °C; for disruption of PRMT1 oligomers by denaturant: 6 M guanidine hydrochloride or 5 M guanidine thiocyanate
T1 construct: human PRMT1 protein (amino acid residue 11–353); His6; made in house
Description: Dynamic light scattering (DLS) uses a laser to measure the particle size distribution ([26]). The DLS can give information regarding the heterogeneity of protein in a sample ([27]). In the past, DLS was used to study microbial and viral structure ([28]). Nowadays, DLS is a popular method for studying nanoparticles, liposomes, and exosomes ([29], [30], [31], [32]). Researchers have also used DLS to study the protein folding of bovine serum albumin ([33]). Therefore, we envisage that the DLS can be utilized to analyze the size changes of PRMT1 oligomeric compositions in an aqueous solution. We expect to see an increase in size with increasing protein concentrations. The prepared PRMT1 protein at varied concentrations was allowed to incubate in the aqueous buffer for equilibrium on ice for 10 min. The protein solution was filtered with 0.2-micron filter to remove any big interfering particles. The protein size was analyzed using a Malvern Zetasizer instrument. We took an average of three runs with about 25 scans each time to evaluate the data. […] Guanidine hydrochloride is a popular protein denaturant ([34]). […] As a negative control, we incubated PRMT1 in the presence of 6 M guanidine hydrochloride to disrupt oligomer formation. […] A literature reported that guanidine thiocyanate is a stronger denaturant than guanidine hydrochloride ([35]).
Figure 2 Oligomerization of PRMT1 detection by dynamic light scattering. Various concentrations of PRMT1 were incubated on ice for 10 min, then filtered by 0.2-micron syringe filter and collected data from the DLS. The top line with black circle indicates PRMT1 without denaturant. The open triangle and hexagon lines indicated PRMT1 oligomeric structure disrupted by 6 M guanidine hydrochloride and 5 M guanidine thiocyanate, respectively.
Indicated concentrations of PRMT1 were incubated for 10 min on ice with buffer (50 mM Hepes pH 8, 10 mM NaCl, 0.5 mM EDTA, 0.5 mM DTT) and filtered through the 0.22 μm syringe filter. For the experiment to disrupt the oligomer formation, 6 M of guanidine hydrochloride or 5 M of guanidine thiocyanate was added to the reaction. The samples were injected into the 1 ml disposable cuvette and measured by Zetasizer Nano ZS (Malvern Instruments) at 25 °C. Three measurements of 25 scans each were collected to average. The data was analyzed by the Malvern Zetasizer software v7.10.

PRMT1 [2] = molecular target: T1, PRMT1; assay: Stopped-flow fluorescence dissociation of H4FL from PRMT1; assay type: binding; conditions: for koff: 1:25 dilution, pH 8.0, ex 498 / em 524, at least three shots averaged, single exponential
Description: We next utilized the stopped-flow technique to measure the dissociation rates of peptide substrate from PRMT1 at different PRMT1 concentrations. We used a rapid dilution experiment with stopped flow fluorescence to measure the dissociation rate of H4 peptide from PRMT1. […] We reasoned that the changes of fluorescence intensity can be used to measure dissociation rate of H4 substrate. In the experiment, the H4FL was premixed with PRMT1 and loaded into the sample chamber of the stopped flow equipment. The mixture was rapidly mixed with an access buffer which initiated the dissociation of H4FL from PRMT1 on the millisecond scale. […] The averaged data curves were fitted to the single exponential equation to yield dissociation rate constant koff. The koff was 42.27 s^−1 at 0.5 μM of PRMT1, the koff was 22.29 s^−1at 1.5 μM of PRMT1, and the koff was 17.65 s^−1 at 5 μM of PRMT1 (Fig. 9D).
Figure 9 Oligomerization helps PRMT1 retain its substrate. The experiment was carried out by the SX20 stopped-flow spectrometers with (A) 0.5 μM, (B) 1.5 μM, and (C) 5 μM of PRMT1. The PRMT1 was premixed with 0.8 μM H4FL peptide. The mixture was diluted with the reaction buffer for a 1:25 dilution when the reaction was run. D, data summary of koff. TEXT PRINTED IN THE PICTURE: (D) no label printed: koff: 42.27 s^-1 (Concentration of PRMT1: 0.5 μM); koff: 22.29 s^-1 (Concentration of PRMT1: 1.5 μM); koff: 17.65 s^-1 (Concentration of PRMT1: 5 μM)
The trapping experiment to measure the dissociation rate of PRMT1 was carried out using the SX20 stopped-flow spectrometers (Applied Photophysics). The setting for excitation was 498 and emission was 524. A constant concentration of 0.8 μM of H4FL peptide (Peptide Sequence: Ac-[…]pr(FL)[…], in which FL stands for fluorescein) was pre-mix with 0.5 μM, 1.5 μM, and 5.0 μM of PRMT1. The mixture was loaded on the 100 μl drive syringe. Another 2.5 ml drive syringe was loaded with reaction buffer (50 mM Hepes pH 8.0, 10 mM NaCl, 0.5 mM EDTA, and 0.5 mM DTT) to create the 1:25 dilution factor. At least three shots were averaged for each reaction and fitted to the single exponential function. F is the fluorescence intensity, t is time, A is the amplitude of fluorescence, k is the dissociation rate constant, and C is the final value of fluorescence.(2) F=Aexp(−kt)+C

PRMT1-WT [3] = molecular target: T2, PRMT1-WT (Homo sapiens, UniProt Q99873); assay: Steady-state kinetics, radiometric filter-binding assay, PRMT1-WT; assay type: biochemical
T2 construct: His-MBP (N, cleaved yes); made in house; host or cells: Escherichia coli BL21 (DE3) RIPL
Description: To gain further insights into the effect of oligomerization on the PRMT1 activity, we measured the steady-state kinetic parameters of different peptide substrates under PRMT1 catalysis using the radiometric assay. […] A constant concentration of PRMT1-WT was mixed with various concentrations of peptide and a constant concentration of radioactive SAM. After quenching the reaction, the reaction mixture was loaded onto the P81 filter paper that was washed, air-dried, and soaked in scintillation cocktail for scintillation counting. The rates of methylation as a function of the peptide concentration were plotted in Figure 8A and fit with the Hill equation to obtain catalytic parameters kcat and K0.5 (Fig. 8B).
Figure 8 Steady state kinetic characterization of PRMT1 catalysis in oligomeric states. Radioactive kinetic parameters were measured using filter-binding assay. […] The reaction time was 15 min at 30 °C and quenched with 100% isopropanol. For the reaction with PRMT1-E153Q, 0.05 μM PRMT1-E153Q was incubated on ice with PRMT1 for 20 min equilibration before adding SAM and peptide. A, kinetic parameters of oligomeric states in graphical form. B, representation of the kinetic parameters in kcat, K0.5, and kcat/K0.5.
Each reaction sample was consisted of 0.05 μM PRMT1, 15 μM ^14C-SAM, and various concentrations of peptide. […]

PRMT1-WT [4] = molecular target: T2, PRMT1-WT; assay: Radiometric P81 filter-binding assay, PRMT1-WT concentration dependence; assay type: biochemical; conditions: 50 μM peptide, 2 μM [3H]-SAM and 48 μM SAM, 30 min, room temperature, pH 8.0
Description: We used the phosphocellulose P81 filter paper–binding assay to measure the catalytic activity of PRMT1 at different concentrations on individual peptides. Each reaction mixture was composed of PRMT1-WT at varied concentrations, at fixed concentrations of SAM and peptide. The reaction mixture was quenched with isopropanol, transferred to the P81 filter paper, and washed with sodium bicarbonate buffer (pH 9). […] The measured count-per-minute (CPM) values correlated directly with the amounts of methylated peptide products. In a typical enzymatic catalysis, the product should be formed linearly as a function of enzyme concentration.
Various concentrations of PRMT1-WT were incubated with radioactive 2 μM [3H]-SAM and 48 μM SAM and 50 μM of indicated peptides for 30 min. The reaction was quenched with 100% isopropanol.
The reaction buffer consisted of 50 mM Hepes pH 8.0, 10 mM NaCl, 0.5 mM EDTA, and 0.5 mM DTT. The reaction was incubated at room temperature for 30 min after being initiated with ^3H-SAM SAM. An equal amount of 100% isopropanol to the total reaction volume was used to quench the reaction. The reaction liquid was transferred onto the phosphocellulose P81 filter paper (1.1 cm × 2 cm, Protein Chemistry & Metabolism Unit at St Vincent's Institute of Medical Research). The P81 filter papers containing the samples were left at room temperature for 30 min to airdry. […]

[5] = molecular target: Human PRMT1 (11-353), His-MBP tag removed (human)

T1 sequence (Q99873 11-353 isoform Q99873-3): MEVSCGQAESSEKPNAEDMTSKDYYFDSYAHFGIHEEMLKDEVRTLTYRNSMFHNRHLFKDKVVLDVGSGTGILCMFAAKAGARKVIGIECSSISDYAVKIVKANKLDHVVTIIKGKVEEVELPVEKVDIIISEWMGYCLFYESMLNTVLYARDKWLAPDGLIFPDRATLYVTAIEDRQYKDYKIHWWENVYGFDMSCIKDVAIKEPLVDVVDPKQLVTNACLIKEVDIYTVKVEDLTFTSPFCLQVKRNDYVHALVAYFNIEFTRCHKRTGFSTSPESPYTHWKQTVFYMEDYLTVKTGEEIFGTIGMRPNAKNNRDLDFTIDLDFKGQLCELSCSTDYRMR
T2 sequence (Q99873 11-353 isoform Q99873-3): as above

Cl.N=C(N)N [guanidine hydrochloride]
disruption of PRMT1 oligomers by denaturant (PRMT1 [1]): substantially smaller than those values without guanidine hydrochloride
highest Z-average of PRMT1 in presence of denaturant (PRMT1 [1]; 6 M guanidine hydrochloride, average of three runs of 25 scans): 8.43 nm

N#CS.N=C(N)N [guanidine thiocyanate]
Z-average of PRMT1 in presence of denaturant (PRMT1 [1]; 5 M guanidine thiocyanate, average of three runs of 25 scans): 1.27 nm
disruption of PRMT1 oligomers by denaturant (PRMT1 [1]): better at denaturing PRMT1 oligomers than guanine hydrochloride

Ac-SGRGKGGKGDpr(FL)GKGGAKRHRK [H4FL, fluorescently labeled H4 peptide]
koff (PRMT1 [2]; 0.5 μM PRMT1, 0.8 μM H4FL): 42.27 s⁻¹
koff (PRMT1 [2]; 1.5 μM PRMT1, 0.8 μM H4FL): 22.29 s⁻¹
koff (PRMT1 [2]; 5 μM PRMT1, 0.8 μM H4FL): 17.65 s⁻¹
koff vs PRMT1 concentration / oligomeric state (PRMT1 [2]; 0.5, 1.5 and 5 μM PRMT1): the koff decreased as PRMT1 concentration increased; also recorded: smaller at higher oligomeric states

Ac-SGRGKGGKGLGKGGAK [Ac-H4(1–16)]
K0.5 / binding comparison of Ac-H4(1–16) and longer H4 peptide (PRMT1-WT [3]): greater than Ac-H4(1–22); also recorded: weaker PRMT1 binding
kcat, fold lower than Ac-H4(1–22) (PRMT1-WT [3]; Ac-H4(1–16) vs Ac-H4(1–22)): 1.3 fold

Ac-SGRmeGKGGKGLGKGGAKRHRK [Ac-H4(1–20)R3me]
PRMT1 enzymatic activity (CPM) vs PRMT1 concentration (PRMT1-WT [4]): increase as higher-order oligomeric structures were formed

PRMT1-E153Q, catalytically inactive mutant (enzyme)
dimethylated R4me2 (MALDI-MS, percent relative to R4 peptide), 0.5 μM PRMT1-WT with 0 to 2 μM PRMT1-E153Q [5]: 5.85%
monomethylated product R4me1 (MALDI-MS, percent relative to R4 peptide), 0.5 μM PRMT1-WT with 0 to 2 μM PRMT1-E153Q [5]: 20.2%
